According to PubChem BioAssay (NCI):
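Tested at 5 concentrations; 48 h exposure; 96-well plates; endpoints linearly interpolated, else capped at highest concentration. GI50 = concentration required for 50% inhibition of growth. Definition used: TGI = concentration required for complete inhibition of growth.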

What was measured:
Test in all cases: DTP human tumour cell line panel, 48 h; in the data active = GI50 below about 0.43 µM; inactive = the rest
BT-549 breast = system: BT-549 breast
SK-MEL-28 melanoma = system: SK-MEL-28 melanoma
NCI/ADR-RES ovarian = system: NCI/ADR-RES ovarian
PC-3 prostate = system: PC-3 prostate
HCT-116 colon = system: HCT-116 colon
SK-MEL-2 melanoma = system: SK-MEL-2 melanoma
CAKI-1 renal = system: CAKI-1 renal
MDA-MB-231 breast = system: MDA-MB-231 breast
UACC-257 melanoma = system: UACC-257 melanoma
SK-OV-3 ovarian = system: SK-OV-3 ovarian
NCI-H460 lung = system: NCI-H460 lung
SF-539 CNS = system: SF-539 CNS
TK-10 renal = system: TK-10 renal
OVCAR-5 ovarian = system: OVCAR-5 ovarian
HOP-62 NSCLC = system: HOP-62 NSCLC
HOP-92 NSCLC = system: HOP-92 NSCLC
SW-620 colon = system: SW-620 colon
RXF 393 renal = system: RXF 393 renal
OVCAR-4 ovarian = system: OVCAR-4 ovarian
OVCAR-3 ovarian = system: OVCAR-3 ovarian
DU-145 prostate = system: DU-145 prostate
786-0 renal = system: 786-0 renal
HCC-2998 colon = system: HCC-2998 colon
HS 578T breast = system: HS 578T breast
UACC-62 melanoma = system: UACC-62 melanoma
COLO 205 colon = system: COLO 205 colon
OVCAR-8 ovarian = system: OVCAR-8 ovarian
MDA-MB-468 breast = system: MDA-MB-468 breast
NCI-H522 lung = system: NCI-H522 lung
MOLT-4 leukemia = system: MOLT-4 leukemia
K-562 leukemia = system: K-562 leukemia
MDA-MB-435 = system: MDA-MB-435
SNB-75 CNS = system: SNB-75 CNS
HL-60(TB) leukemia = system: HL-60(TB) leukemia
U251 CNS = system: U251 CNS
LOX IMVI melanoma = system: LOX IMVI melanoma
UO-31 renal = system: UO-31 renal
CCRF-CEM leukemia = system: CCRF-CEM leukemia
EKVX NSCLC = system: EKVX NSCLC
A498 renal = system: A498 renal
KM12 colon = system: KM12 colon
M14 melanoma = system: M14 melanoma
SNB-19 CNS = system: SNB-19 CNS
RPMI-8226 leukemia = system: RPMI-8226 leukemia
SF-268 CNS = system: SF-268 CNS
T-47D breast = system: T-47D breast
ACHN renal = system: ACHN renal
IGROV1 ovarian = system: IGROV1 ovarian
MCF7 breast = system: MCF7 breast
A549 NSCLC = system: A549 NSCLC
SK-MEL-5 melanoma = system: SK-MEL-5 melanoma
HT29 colon = system: HT29 colon
SF-295 CNS = system: SF-295 CNS
HCT-15 colon = system: HCT-15 colon
SN12C renal = system: SN12C renal
MALME-3M melanoma = system: MALME-3M melanoma
NCI-H23 lung = system: NCI-H23 lung
SR leukemia = system: SR leukemia
NCI-H226 lung = system: NCI-H226 lung

CC1[C@H]2[C@H](C[C@H]3[C@@H]4CC=C5c6sc(Nc7ccccc7F)nc6CC[C@]5(C)[C@H]4CC[C@@]32C)O[C@]12CC[C@@H](C)CO2 (stereo partly drawn)
> 100 µM: TGI (BT-549 breast) | TGI (SK-MEL-28 melanoma) | TGI (NCI/ADR-RES ovarian) | TGI (PC-3 prostate) | TGI (HCT-116 colon) | TGI (SK-MEL-2 melanoma) | TGI (CAKI-1 renal) | TGI (MDA-MB-231 breast) | TGI (UACC-257 melanoma) | TGI (SK-OV-3 ovarian) | TGI (NCI-H460 lung) | TGI (SF-539 CNS) | TGI (TK-10 renal) | TGI (OVCAR-5 ovarian) | TGI (HOP-62 NSCLC) | TGI (HOP-92 NSCLC) | TGI (SW-620 colon) | TGI (OVCAR-4 ovarian) | TGI (OVCAR-3 ovarian) | TGI (DU-145 prostate) | TGI (786-0 renal) | TGI (HCC-2998 colon) | TGI (HS 578T breast) | TGI (UACC-62 melanoma) | TGI (COLO 205 colon) | TGI (OVCAR-8 ovarian) | TGI (MDA-MB-468 breast) | TGI (NCI-H522 lung) | TGI (MOLT-4 leukemia) | TGI (K-562 leukemia) | TGI (MDA-MB-435) | TGI (SNB-75 CNS) | TGI (HL-60(TB) leukemia) | TGI (U251 CNS) | TGI (LOX IMVI melanoma) | TGI (UO-31 renal) | TGI (CCRF-CEM leukemia) | TGI (EKVX NSCLC) | TGI (A498 renal) | TGI (KM12 colon) | TGI (M14 melanoma) | TGI (SNB-19 CNS) | TGI (RPMI-8226 leukemia) | TGI (SF-268 CNS) | TGI (T-47D breast) | TGI (ACHN renal) | TGI (IGROV1 ovarian) | TGI (MCF7 breast) | TGI (A549 NSCLC) | TGI (SK-MEL-5 melanoma) | TGI (HT29 colon) | TGI (SF-295 CNS) | TGI (HCT-15 colon) | TGI (SN12C renal) | TGI (MALME-3M melanoma) | TGI (NCI-H23 lung) | TGI (SR leukemia) | TGI (NCI-H226 lung)
66.7 µM: TGI (RXF 393 renal)
inactive: GI50 (BT-549 breast) 26.4 µM | GI50 (SK-MEL-28 melanoma) > 100 µM | GI50 (NCI/ADR-RES ovarian) > 100 µM | GI50 (PC-3 prostate) 26.3 µM | GI50 (HCT-116 colon) 37.3 µM | GI50 (SK-MEL-2 melanoma) > 100 µM | GI50 (CAKI-1 renal) > 100 µM | GI50 (MDA-MB-231 breast) > 100 µM | GI50 (UACC-257 melanoma) 54.1 µM | GI50 (SK-OV-3 ovarian) > 100 µM | GI50 (NCI-H460 lung) 91.1 µM | GI50 (SF-539 CNS) 80.9 µM | GI50 (TK-10 renal) > 100 µM | GI50 (OVCAR-5 ovarian) > 100 µM | GI50 (HOP-62 NSCLC) > 100 µM | GI50 (HOP-92 NSCLC) 42.3 µM | GI50 (SW-620 colon) 76.1 µM | GI50 (RXF 393 renal) 9.09 µM | GI50 (OVCAR-4 ovarian) > 100 µM | GI50 (OVCAR-3 ovarian) > 100 µM | GI50 (DU-145 prostate) > 100 µM | GI50 (786-0 renal) 85.4 µM | GI50 (HCC-2998 colon) > 100 µM | GI50 (HS 578T breast) > 100 µM | GI50 (UACC-62 melanoma) 43.1 µM | GI50 (COLO 205 colon) 62.1 µM | GI50 (OVCAR-8 ovarian) > 100 µM | GI50 (MDA-MB-468 breast) 25.1 µM | GI50 (NCI-H522 lung) 34.7 µM | GI50 (MOLT-4 leukemia) 25.7 µM | GI50 (K-562 leukemia) 26.6 µM | GI50 (MDA-MB-435) 95.4 µM | GI50 (SNB-75 CNS) 31.2 µM | GI50 (HL-60(TB) leukemia) 30.1 µM | GI50 (U251 CNS) > 100 µM | GI50 (LOX IMVI melanoma) 67.1 µM | GI50 (UO-31 renal) > 100 µM | GI50 (CCRF-CEM leukemia) 5.1 µM | GI50 (EKVX NSCLC) > 100 µM | GI50 (A498 renal) > 100 µM | GI50 (KM12 colon) > 100 µM | GI50 (M14 melanoma) 86.7 µM | GI50 (SNB-19 CNS) > 100 µM | GI50 (RPMI-8226 leukemia) 35.5 µM | GI50 (SF-268 CNS) > 100 µM | GI50 (T-47D breast) 25 µM | GI50 (ACHN renal) > 100 µM | GI50 (IGROV1 ovarian) > 100 µM | GI50 (MCF7 breast) 38.2 µM | GI50 (A549 NSCLC) > 100 µM | GI50 (SK-MEL-5 melanoma) 31.7 µM | GI50 (HT29 colon) 60.3 µM | GI50 (SF-295 CNS) 53.3 µM | GI50 (HCT-15 colon) 56.1 µM | GI50 (SN12C renal) > 100 µM | GI50 (MALME-3M melanoma) > 100 µM | GI50 (NCI-H23 lung) 59.5 µM | GI50 (SR leukemia) 24.8 µM | GI50 (NCI-H226 lung) > 100 µM
